According to ChEMBL document CHEMBL3046955, “Antiviral effects of three novel derivatives of adefovir on the replication of hepatitis B virus” (Med Chem Res, 2012):
Active and inactive are the calls of the source. The rule behind the calls is not given here.

Columns and labels:
HepG2 [1] = assay: Cytotoxicity against Homo sapiens (human) HepG2 assessed as mitochondrial DNA level at 0.1 to 10 umol for 8 days by dot blot assay; format: cell-based; settings: hepg2, 192 h
HepG2 [2] = assay: Cytotoxicity against Homo sapiens (human) HepG2 assessed as mitochondrial DNA level for 8 days by dot blot assay; format: cell-based; settings: hepg2, 192 h
Duck hepatitis B virus [3] = assay: Antiviral activity against Duck hepatitis B virus (DHBV) infected duck assessed as liver weight at 2 mg/kg, po for 30 days (reference value: 1.25 g); format: functional
Duck hepatitis B virus [4] = assay: Antiviral activity against Duck hepatitis B virus (DHBV) infected duck assessed as reduction in viral DNA level at 2 to 50 mg/kg, po for 30 days measured on day 15 post termination of treatment by RT-PCR analysis; format: functional, organism-based
HepG2 [5] = assay: Cytotoxicity against Homo sapiens (human) HepG2 cells at <1000 uM after 72 hr by MTT assay; format: cell-based; settings: hepg2, 72 h
Duck hepatitis B virus [6] = assay: Antiviral activity against Duck hepatitis B virus (DHBV) infected duck assessed as liver weight at 50 mg/kg, po for 30 days (reference value: 1.25 g); format: functional
Duck hepatitis B virus [7] = assay: Antiviral activity against Duck hepatitis B virus (DHBV) infected duck assessed as reduction in viral DNA level at 2 to 50 mg/kg, po for 30 days measured on day 30 by RT-PCR analysis; format: functional, organism-based
Duck hepatitis B virus [8] = assay: Antiviral activity against Duck hepatitis B virus (DHBV) infected duck assessed as reduction in viral DNA level at 2 to 50 mg/kg, po for 30 days measured on day 15 post initial treatment by RT-PCR analysis; format: functional, organism-based
Duck hepatitis B virus [9] = assay: Antiviral activity against Duck hepatitis B virus (DHBV) infected duck assessed as reduced inflammation in liver at 2 to 50 mg/kg, po for 30 days; format: functional, organism-based
Duck hepatitis B virus [10] = assay: Antiviral activity against Duck hepatitis B virus (DHBV) infected duck assessed as liver weight at 10 mg/kg, po for 30 days (reference value: 1.25 g); format: functional
Duck hepatitis B virus [11] = assay: Antiviral activity against Duck hepatitis B virus (DHBV) infected duck assessed as viral DNA level at 2 to 50 mg/kg, po for 30 days measured on day 15 post initial treatment by RT-PCR analysis; format: functional, organism-based
Duck hepatitis B virus [12] = assay: Antiviral activity against Duck hepatitis B virus (DHBV) infected po dosed duck assessed as reduction in viral DNA level administered for 30 days measured on day 30 by RT-PCR analysis; format: functional, organism-based
Duck hepatitis B virus [13] = assay: Antiviral activity against Duck hepatitis B virus (DHBV) infected po dosed duck assessed as reduction in viral DNA level administered for 30 days measured on day 15 post initial treatment by RT-PCR analysis; format: functional, organism-based
Duck hepatitis B virus [14] = assay: Antiviral activity against Duck hepatitis B virus (DHBV) infected po dosed duck assessed as reduction in viral DNA level administered for 30 days measured on day 15 post termination of treatment by RT-PCR analysis; format: functional, organism-based
Duck hepatitis B virus [15] = assay: Antiviral activity against Duck hepatitis B virus (DHBV) infected duck assessed as viral DNA level at 10 mg/kg, po for 30 days measured on day 15 post initial treatment by RT-PCR analysis; format: functional, organism-based; set-up: dose 10 mg/kg
Duck hepatitis B virus [16] = assay: Antiviral activity against Duck hepatitis B virus (DHBV) infected duck assessed as reduction in viral DNA level at 10 mg/kg, po for 30 days measured on day 15 post termination of treatment by RT-PCR analysis; format: functional, organism-based; set-up: dose 10 mg/kg
Duck hepatitis B virus [17] = assay: Antiviral activity against Duck hepatitis B virus (DHBV) infected duck assessed as reduced inflammation in liver at 10 mg/kg, po for 30 days; format: functional, organism-based; set-up: dose 10 mg/kg
Duck hepatitis B virus [18] = assay: Antiviral activity against Duck hepatitis B virus (DHBV) infected duck assessed as reduction in viral DNA level at 10 mg/kg, po for 30 days measured on day 30 by RT-PCR analysis; format: functional, organism-based; set-up: dose 10 mg/kg

SMILES | Activity (HepG2 [1]) | Activity (HepG2 [2]) | Activity (Duck hepatitis B virus [3]) [g] | inhibition (Duck hepatitis B virus [4]) | Activity (HepG2 [5]) | Activity (Duck hepatitis B virus [6]) [g] | inhibition (Duck hepatitis B virus [7]) | inhibition (Duck hepatitis B virus [8]) | inhibition (Duck hepatitis B virus [9]) | Activity (Duck hepatitis B virus [10]) [g] | Activity (Duck hepatitis B virus [11]) | inhibition (Duck hepatitis B virus [12]) | inhibition (Duck hepatitis B virus [13]) | inhibition (Duck hepatitis B virus [14]) | Activity (Duck hepatitis B virus [15]) | inhibition (Duck hepatitis B virus [16]) | inhibition (Duck hepatitis B virus [17]) | inhibition (Duck hepatitis B virus [18])
Nc1ccn([C@H]2CC[C@@H](CO)O2)c(=O)n1 [ZALCITABINE] | Toxic | Dose-dependent effect |  |  |  |  |  |  |  |  |  |  |  |  |  |  |  | 
CC(Cn1cnc2c(Sc3ccc4c(c3)CCO4)nc(N)nc21)OCP(=O)(OCC(F)(F)F)OCC(F)(F)F (stereo unspecified) | Non-toxic |  | 0.9 | Active | Non-toxic | 0.95 | Active | Active | Active | 0.75 | inactive |  |  |  |  |  |  | 
CSc1ccc(Sc2nc(N)nc3c2ncn3CCOCP(=O)(OCC(F)(F)F)OCC(F)(F)F)cc1 | Non-toxic |  | 0.8 |  | Non-toxic | 0.55 |  |  | Active | 0.75 |  | Dose-dependent effect | Dose-dependent effect | Dose-dependent effect |  |  |  | 
CC(C)(C)C(=O)OCOP(=O)(COCCn1cnc2c(N)ncnc21)OCOC(=O)C(C)(C)C [ADEFOVIR DIPIVOXIL] |  |  |  |  | Non-toxic |  |  |  |  | 0.8 |  |  |  |  | inactive | Active | Active | Active
COc1ccc(Sc2nc(N)nc3c2ncn3CCOCP(=O)(OCC(F)(F)F)OCC(F)(F)F)cc1F | Non-toxic |  | 0.8 | Active | Non-toxic | 0.85 | Active | Active | Active | 0.8 |  |  |  |  |  |  |  | 
